Consider nine compounds from ChEMBL document CHEMBL5390207, “Cyclotheonellazoles D-I, Potent Elastase Inhibitory Thiazole-Containing Cyclic Peptides from Theonella sp. (2131)” (J Nat Prod, 2023).

Experiment [1] addresses Replicase polyprotein 1ab (Severe acute respiratory syndrome coronavirus 2, UniProt P0DTD1). Nature of the experiment: Inhibition of SARS-CoV-2 3CLpro incubated for 4 hrs.
Experiment [2] concerns MDA-MB-231. Nature of the experiment: Cytotoxicity against human MDA-MB-231 cells assessed as cell viability at >20 uM incubated for 72 hrs by resazurin dye based fluorescence assay. It is filed as functional.
The subject of experiment [3] is HCT-116. Nature of the experiment: Cytotoxicity against human HCT-116 cells assessed as cell viability at >20 uM incubated for 72 hrs by resazurin dye based fluorescence assay. It is filed as functional. (Resazurin is reduced to fluorescent resorufin, in cell work by metabolically active cells.)
For experiment [4], the system named is L1210. Nature of the experiment: Cytotoxicity against mouse L1210 cells assessed as reduction in cell viability. The experiment is classed as functional, cell-based.
Experiment [5] concerns OVCAR. Nature of the experiment: Cytotoxicity against human OVCAR cells assessed as cell viability at > 20 uM incubated for 72 hrs by resazurin dye based fluorescence assay. The experiment is classed as functional.
In experiment [6] the test system is KB. Briefly: Cytotoxicity against human KB cells assessed as reduction in cell viability. It is filed as functional, cell-based.
For experiment [7], the target named is Chymotrypsinogen A (Bos taurus, UniProt P00766). Briefly: Inhibition of bovine pancreatic alpha chymotrypsin using N-succinyl-Gly-Gly-Phe-p-nitroanilide as substrate preincubated with enzyme for 10 mins followed by substrate addition and measured for 30 mins.
Experiment [8] relates to OVCAR. Briefly: Cytotoxicity against human OVCAR cells assessed as cell viability upto 100 uM incubated for 72 hrs by resazurin dye based fluorescence assay. It is filed as functional.
Experiment [9] has as its system HCT-116. Nature of the experiment: Cytotoxicity against human HCT-116 cells assessed as cell viability upto 100 uM incubated for 72 hrs by resazurin dye based fluorescence assay. It is filed as functional.
The subject of experiment [10] is MDA-MB-231. Briefly: Cytotoxicity against human MDA-MB-231 cells assessed as cell viability upto 100 uM incubated for 72 hrs by resazurin dye based fluorescence assay. It is filed as functional.
Experiment [11] is described as follows: Inhibition of porcine pancreatic elastase using N-succinyl-Ala-Ala-Ala-p-nitroanilide as substrate preincubated with enzyme for 15 mins followed by substrate addition and measured for 30 mins. Set-up: species or system Sus scrofa.

What is called IC50 is the point on the concentration scale where inhibition reaches its midpoint.

Calls of active or inactive are those of the source. No cut-off for these calls is given here. Starred links: 1 amine or outer side, 2 acyl side, 3 side chain; linkers in the order of their positions; H or OH if unused. Positions of bridges follow the written chain, without caps; N, C: chain ends. Non-standard residues stand in square brackets, D forms with d. Residues, ends and D or L forms follow the SMILES beside them. X2 = O=C(/C=C/c1csc([C@H](Cc2ccc(O)cc2)N[*:1])n1)[*:2]; X1 = CC[C@H](C)[C@H](N[*:1])C(=O)C(=O)[*:2]; Cya = N[C@@H](CS(=O)(=O)O)C(=O)O; Nva = CCC[C@H](N)C(=O)O; Abu = CC[C@H](N)C(=O)O; Dap = NC[C@H](N)C(=O)O

With `CC(C)C[C@@H]1NC(=O)[C@H](NC(=O)N[C@@H](Cc2ccccc2)C(=O)O)CCCCNC(=O)[C@H](Cc2ccccc2)NC(=O)[C@H](Cc2c[nH]c3cc(Cl)ccc23)N(C)C(=O)[C@H](CC(C)C)NC1=O`, the IC50 in [1] is 4.6 µM; in experiment [4], 500 nM; in [6], 970 nM. Besides, the outcome in experiment [2], in experiment [3] and in experiment [5] was Active.
Take `CC[C@H](C)[C@@H]1NC(=O)[C@H](CC(C)C)NC(=O)[C@@H](N2C(=O)N[C@@H](C)C2=O)CNC(=O)[C@H](CS(=O)(=O)O)NC(=O)/C=C/c2csc(n2)[C@H](Cc2ccc(O)cc2)NC(=O)C1=O`: the IC50 is 1900 nM in [7] and 17.6 nM in experiment [11]. The outcome in experiment [8], in experiment [9] and in experiment [10] was inactive.
Consider `CC[C@@H]1NC(=O)[C@@H](NC(=O)[C@H](C)N)CNC(=O)[C@H](CS(=O)(=O)O)NC(=O)/C=C/c2csc(n2)[C@H](Cc2ccc(O)cc2)NC(=O)C(=O)[C@H]([C@@H](C)CC)NC1=O` (H-A[Dap][Abu][X1][X2][Cya]; lactam 2-C), for which the IC50 in experiment [7] stood at 1600 nM; in experiment [11], 16 nM.
`CCC[C@@H]1NC(=O)[C@@H](NC(=O)[C@H](C)N)CNC(=O)[C@H](CS(=O)(=O)O)NC(=O)/C=C/c2csc(n2)[C@H](Cc2ccc(O)cc2)NC(=O)C(=O)[C@H]([C@@H](C)CC)NC1=O` (H-A[Dap][Nva][X1][X2][Cya]; lactam 2-C): the values for the IC50 in experiment [7], in experiment [1] and in experiment [11] were 2400 nM, 16.1 µM and 20.1 nM, respectively.
As for `CC[C@@H]1NC(=O)[C@@H](N2C(=O)N[C@@H](C)C2=O)CNC(=O)[C@H](CS(=O)(=O)O)NC(=O)/C=C/c2csc(n2)[C@H](Cc2ccc(O)cc2)NC(=O)C(=O)[C@H]([C@@H](C)CC)NC1=O`, the results for the IC50 in experiment [7] and in experiment [11] were 2700 nM and 61.8 nM, respectively. The result in experiment [8], in [9] and in [10] was inactive.
In the case of `CCC[C@@H]1NC(=O)[C@@H](N2C(=O)N[C@@H](C)C2=O)CNC(=O)[C@H](CS(=O)(=O)O)NC(=O)/C=C/c2csc(n2)[C@H](Cc2ccc(O)cc2)NC(=O)C(=O)[C@H]([C@@H](C)CC)NC1=O`, the values for the IC50 in experiment [7] and in experiment [11] were 2500 nM and 34.8 nM, respectively. Also, the outcome in [8], in [9] and in experiment [10] was inactive.
For the compound `CC[C@H](C)[C@@H]1NC(=O)[C@H](CC(C)C)NC(=O)[C@@H](NC(=O)[C@H](C)N)CNC(=O)[C@H](CS(=O)(=O)O)NC(=O)/C=C/c2csc(n2)[C@H](Cc2ccc(O)cc2)NC(=O)C1=O` (H-A[Dap]L[X1][X2][Cya]; lactam 2-C), the 50% inhibitory concentration (IC50) in [7] turned out to be 2000 nM; in experiment [1] it was 6.1 µM; in experiment [11], 28 nM.
As for `O=S(=O)(F)Cc1ccccc1` [PHENYLMETHYLSULFONYLFLUORIDE], the IC50 was found to be 420 nM in [7] and 138 nM in [11].
For `CC(C)C[C@@H]1NC(=O)[C@H](NC(=O)N[C@@H](Cc2ccccc2)C(=O)O)CCCCNC(=O)[C@H](Cc2ccccc2)NC(=O)[C@H](Cc2c[nH]c3cc(Cl)c(O)cc23)N(C)C(=O)[C@H](CC(C)C)NC1=O`, the IC50 stood at 730 nM in experiment [7], 1.1 µM in [1] and 51.3 nM in experiment [11].
